Data from EP0062321A2, “New cephem compounds, processes for their preparation, pharmaceutical compositions containing them and their starting compounds” (FUJISAWA PHARMACEUTICAL CO., LTD., priority 1981, dated 1982).
In brackets after ≈: the same amount, converted by molar mass.

Tests used:
Pr.mirabilis 140 = assay: Minimal inhibitory concentration (MIC) by agar dilution on heart infusion agar; format: cell-based; details: Proteus mirabilis, HI-agar, one loopful of overnight culture in Trypticase-soy broth (10 viable cells per ml), 37°C for 20 hours
Method: (§1) Now in order to show the utility of the object compounds (I), test data on anti-microbial activity of representative compounds of the present invention are shown below.
(§2) One loopful of an overnight culture of each test strain in Trypticase-soy broth (10 viable cells per ml,) was streaked on heart infusion agar (HI-agar) containing graded concentrations of antibiotics, and the minimal inhibitory concentration (MIC) was expressed in terms of µg/ml after incubation at 37°C for 20 hours.

Pr.vulgaris IAM-1025 = assay: as above; format: cell-based; details: Proteus vulgaris, IAM1025, HI-agar, one loopful of overnight culture in Trypticase-soy broth (10 viable cells per ml), 37°C for 20 hours
Method: as §1, §2

MIC (Pr.mirabilis 140) [µg/mL] | MIC (Pr.vulgaris IAM-1025) [µg/mL] | Structure (SMILES)
0.39 (≈ 0.792 µM) | 0.78 (≈ 1.58 µM) | CCO/N=C(\C(=O)NC1C(=O)N2C(C(=O)[O-])=C(C[n+]3cccn3C)CSC12)c1nsc(N)n1 (stereo not drawn) [(1)]
0.39 (≈ 0.795 µM) | 0.39 (≈ 0.795 µM) | CCO/N=C(\C(=O)NC1C(=O)N2C(C(=O)[O-])=C(C[n+]3ccccn3)CSC12)c1nsc(N)n1 (stereo not drawn) [(2)]
0.39 (≈ 0.818 µM) | 6.25 (≈ 13.1 µM) | CO/N=C(\C(=O)NC1C(=O)N2C(C(=O)[O-])=C(C[n+]3ccccn3)CSC12)c1nsc(N)n1 (stereo not drawn) [(3)]
